Data reported in patent US20260262643A1, “HERBICIDAL BENZOXAZINES” (FMC CORPORATION, priority 2022, published 2026).

What was measured:
soybean [1] = experiment: Test A postemergence; format: in vivo, Glycine max; details: postemergence, 10 days
In short: (§1)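 Greenhouse pot test, 10 days. Compound (non-phytotoxic solvent, surfactant) sprayed on soil at seeding or on seedlings at one- to two-leaf stage. Visual injury rated 0–100 against untreated plants.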

corn [2] = experiment: Test A postemergence; format: in vivo, Zea mays; details: postemergence, 10 days
In short: as §1

soybean [3] = experiment: Test A preemergence; format: in vivo, Glycine max; details: 0 to 100 scale
In short: as §1

wheat [4] = experiment: Test A postemergence; format: in vivo, Triticum aestivum; details: postemergence, 10 days
In short: as §1

foxtail, giant [5] = experiment: Test A postemergence; format: in vivo, Setaria faberi; details: postemergence, 10 days
In short: as §1

pigweed, palmer [6] = experiment: Test A preemergence; format: in vivo, Amaranthus palmeri; details: 0 to 100 scale
In short: as §1

blackgrass [7] = experiment: Test A postemergence; format: in vivo, Alopecurus myosuroides; details: postemergence, 10 days
In short: as §1

kochia [8] = experiment: Test A postemergence; format: in vivo, Bassia scoparia; details: postemergence, 10 days
In short: as §1

barnyardgrass [9] = experiment: Test A postemergence; format: in vivo, Echinochloa crusgalli; details: postemergence, 10 days
In short: as §1

ragweed [10] = experiment: Test A preemergence; format: in vivo, Ambrosia artemisiifolia; details: 0 to 100 scale
In short: as §1

oat, wild [11] = experiment: Test A preemergence; format: in vivo, Avena fatua; details: 0 to 100 scale
In short: as §1

galium = experiment: Test A postemergence; format: in vivo, Galium aparine; details: postemergence, 10 days
In short: as §1

ragweed [12] = experiment: Test A postemergence; format: in vivo, Ambrosia artemisiifolia; details: postemergence, 10 days
In short: as §1

corn [13] = experiment: Test A preemergence; format: in vivo, Zea mays; details: 0 to 100 scale
In short: as §1

ducksalad = experiment: Test B flooded paddy test; format: in vivo, Heteranthera limosa; details: 250 g ai/ha, Flood, 13 days, 0 to 100 scale (0 no effect, 100 complete control)
In short: (§2)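 Visual scores from 0 (no effect) to 100 (complete kill) were assigned 13 days after treatment by comparison with controls. Seedlings had been treated at two leaves by adding compound to floodwater standing 3 cm deep, kept at that level in the greenhouse.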

ryegrass, Italian [14] = experiment: Test A postemergence; format: in vivo, Lolium multiflorum; details: postemergence, 10 days
In short: as §1

foxtail, giant [15] = experiment: Test A preemergence; format: in vivo, Setaria faberi; details: 0 to 100 scale
In short: as §1

rice = experiment: Test B flooded paddy test; format: in vivo, Oryza sativa; details: 250 g ai/ha, Flood, 13 days, 0 to 100 scale (0 no effect, 100 complete control)
In short: as §2

barnyardgrass [16] = experiment: Test A preemergence; format: in vivo, Echinochloa crusgalli; details: visual injury after 10 days, 0 to 100 scale, 0 is no effect, 100 is complete control
In short: as §1

barnyardgrass [17] = experiment: Test B flooded paddy test; format: in vivo, Echinochloa crus-galli; details: 250 g ai/ha, Flood, 13 days, 0 to 100 scale (0 no effect, 100 complete control)
In short: as §2

kochia [18] = experiment: Test A preemergence; format: in vivo, Bassia scoparia; details: 0 to 100 scale
In short: as §1

wheat [19] = experiment: Test A preemergence; format: in vivo, Triticum aestivum; details: 0 to 100 scale
In short: as §1

horseweed = experiment: Test A postemergence; format: in vivo, Erigeron canadensis; details: postemergence, 10 days
In short: as §1

pigweed, palmer [20] = experiment: Test A postemergence; format: in vivo, Amaranthus palmeri; details: postemergence, 10 days
In short: as §1

ryegrass, Italian [21] = experiment: Test A preemergence; format: in vivo, Lolium multiflorum; details: 0 to 100 scale
In short: as §1

blackgrass [22] = experiment: Test A preemergence; format: in vivo, Alopecurus myosuroides; details: 0 to 100 scale
In short: as §1

sedge, umbrella = experiment: Test B flooded paddy test; format: in vivo, Cyperus difformis; details: 250 g ai/ha, Flood, 13 days, 0 to 100 scale (0 no effect, 100 complete control)
In short: as §2

oat, wild [23] = experiment: Test A postemergence; format: in vivo, Avena fatua; details: postemergence, 10 days
In short: as §1

[24] = 125 g ai/ha, 0 to 100 scale, 0 no effect, 100 complete control
[25] = 500 g ai/ha, visual injury, 0 to 100 scale (0 no effect, 100 complete control)
[26] = 500 g ai/ha, visual injury after 10 days, 0 is no effect, 100 is complete control

## COc1cc(C(=O)N2C[C@H](C)Oc3c(Cl)cccc32)cc(-n2cncn2)c1 [Compound 138]
Soybean [1]; [24]
  Soybean plant response rating: 100
Soybean [1]; [25]
  Plant response rating, Soybean: 100
Corn [2]; [24]
  Corn plant response rating: 80
Corn [2]; [25]
  Plant response rating, Corn: 90
Soybean [3]; 125 g ai/ha
  Plant response rating, Soybean: 70
Soybean [3]; [26]
  Plant response rating, Soybean: 100
Wheat [4]; [24]
  Wheat plant response rating: 40
Wheat [4]; [25]
  Plant response rating, Wheat: 80
foxtail, giant [5]; [24]
  Foxtail, Giant plant response rating: 90
foxtail, giant [5]; [25]
  Plant response rating, Foxtail, Giant: 90
pigweed, palmer [6]; 125 g ai/ha
  Plant response rating, Pigweed, Palmer: 90
pigweed, palmer [6]; [26]
  Plant response rating, Pigweed, Palmer: 100
Blackgrass [7]; [24]
  Blackgrass plant response rating: 80
Blackgrass [7]; [25]
  Plant response rating, Blackgrass: 90
Kochia [8]; [24]
  Kochia plant response rating: 80
Kochia [8]; [25]
  Plant response rating, Kochia: 80
Barnyardgrass [9]; [24]
  Barnyardgrass plant response rating: 60
Barnyardgrass [9]; [25]
  Plant response rating, Barnyardgrass: 80
Ragweed [10]; 125 g ai/ha
  Plant response rating, Ragweed: 0
Ragweed [10]; [26]
  Plant response rating, Ragweed: 0
oat, wild [11]; 125 g ai/ha
  Plant response rating, Oat, Wild: 40
oat, wild [11]; [26]
  Plant response rating, Oat, Wild: 90
galium; [24]
  Galium plant response rating: 80
galium; [25]
  Plant response rating, Galium: 100
Ragweed [12]; [24]
  Ragweed plant response rating: 0
Ragweed [12]; [25]
  Plant response rating, Ragweed: 40
Corn [13]; 125 g ai/ha
  Plant response rating, Corn: 10
Corn [13]; [26]
  Plant response rating, Corn: 10
ducksalad
  Plant response rating, Ducksalad: 70
ryegrass, Italian [14]; [24]
  Ryegrass, Italian plant response rating: 70
ryegrass, Italian [14]; [25]
  Plant response rating, Ryegrass, Italian: 100
foxtail, giant [15]; 125 g ai/ha
  Plant response rating, Foxtail, Giant: 100
foxtail, giant [15]; [26]
  Plant response rating, Foxtail, Giant: 100
rice
  Plant response rating, Rice: 35
Barnyardgrass [16]; 125 g ai/ha
  Plant response rating, Barnyardgrass: 90
Barnyardgrass [16]; 500 g ai/ha
  Plant response rating, Barnyardgrass: 100
Barnyardgrass [17]
  Plant response rating, Barnyardgrass: 35
Kochia [18]; 125 g ai/ha
  Plant response rating, Kochia: 0
Kochia [18]; [26]
  Plant response rating, Kochia: 50
Wheat [19]; 125 g ai/ha
  Plant response rating, Wheat: 40
Wheat [19]; [26]
  Plant response rating, Wheat: 90
horseweed; [24]
  Horseweed plant response rating: 0
horseweed; [25]
  Plant response rating, Horseweed: 0
pigweed, palmer [20]; [24]
  Pigweed, Palmer plant response rating: 30
pigweed, palmer [20]; [25]
  Plant response rating, Pigweed, Palmer: 90
ryegrass, Italian [21]; 125 g ai/ha
  Plant response rating, Ryegrass, Italian: 80
ryegrass, Italian [21]; [26]
  Plant response rating, Ryegrass, Italian: 100
Blackgrass [22]; 125 g ai/ha
  Plant response rating, Blackgrass: 80
Blackgrass [22]; [26]
  Plant response rating, Blackgrass: 90
sedge, umbrella
  Plant response rating, Sedge, Umbrella: 75
oat, wild [23]; [24]
  Oat, Wild plant response rating: 50
oat, wild [23]; [25]
  Plant response rating, Oat, Wild: 80
